Where a SMILES comes first, the peptide text is derived from it. The star is where a group is joined. Cbz = O=C(OCc1ccccc1)*
What was measured:
Assay type in all cases: biochemical
MCH-2 = biological target: T1, MCH-2 (Homo sapiens, UniProt P55212); assay: Fluorescence enzyme assay, determination of IC50 values (Mch2); conditions: 30 min preincubation, substrate Acetyl-Asp-Glu-Val-Asp-AMC, room temperature
T1 sequence (P55212 24-179 limits assumed): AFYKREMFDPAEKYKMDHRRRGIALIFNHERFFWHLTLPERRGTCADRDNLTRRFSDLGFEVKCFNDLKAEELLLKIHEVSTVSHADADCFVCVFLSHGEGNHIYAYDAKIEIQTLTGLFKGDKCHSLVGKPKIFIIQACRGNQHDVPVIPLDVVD
T1 sequence (P55212 194-293 limits assumed): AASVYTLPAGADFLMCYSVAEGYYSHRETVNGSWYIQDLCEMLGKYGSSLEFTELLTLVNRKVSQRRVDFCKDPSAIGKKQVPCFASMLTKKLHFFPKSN
Protocol: (§1) Fluorescence enzyme assays detecting the activity of the compounds of Formula I utilizing the recombinant ICE and CPP32 enzymes are performed essentially according to Thornberry et al. (Nature, 356:768:774 (1992)) and Nicholson et al. (Nature, 376:37–43 (1995)) respectively, (herein incorporated by reference) in 96 well microtiter plates. The substrate is Acetyl-Tyr-Val-Ala-Asp-amino-4-methylcoumarin (AMC) for the ICE assay and Acetyl-Asp-Glu-Val-Asp-amino-4-methylcoumarin for the CPP32, Mch2, Mch3 and Mch5 assays. Enzyme reactions are run in ICE buffer (25 mM HEPES, 1 mM EDTA, 0.1% CHAPS, 10% sucrose, pH 7.5) containing 2 mM DTT at room temperature in duplicate.
(§2) The enzyme and the compound of Formula I to be assayed are allowed to preincubate in the microtitre plate wells for 30 minutes at room temperature prior to the addition of substrate to initiate the reaction. Fluorescent AMC product formation is monitored for one hour at room temperature by measuring the fluorescence emission at 460 nm using an excitation wavelength of 360 nm.
(§3) The reference compound for this assay was Cbz-ValAlaAsp-H and the values are denoted in Table 1 as “Reference”.

MCH-5 = MCH-5 (Homo sapiens, UniProt Q14790); assay: Fluorescence enzyme assay, determination of IC50 values (Mch5); conditions: 30 min preincubation, substrate Acetyl-Asp-Glu-Val-Asp-AMC, room temperature
Protocol: The substrate is Acetyl-Tyr-Val-Ala-Asp-amino-4-methylcoumarin (AMC) for the ICE assay and Acetyl-Asp-Glu-Val-Asp-amino-4-methylcoumarin for the CPP32, Mch2, Mch3 and Mch5 assays. Enzyme reactions are run in ICE buffer (25 mM HEPES, 1 mM EDTA, 0.1% CHAPS, 10% sucrose, pH 7.5) containing 2 mM DTT at room temperature in duplicate.
as §2, §3

CPP32 = biological target: T2, CPP32 (Homo sapiens, UniProt P42574); assay: Fluorescence enzyme assay, determination of IC50 values (CPP32); conditions: recombinant enzyme, 30 min preincubation, substrate Acetyl-Asp-Glu-Val-Asp-AMC, room temperature
T2 sequence (P42574 29-175 limits assumed): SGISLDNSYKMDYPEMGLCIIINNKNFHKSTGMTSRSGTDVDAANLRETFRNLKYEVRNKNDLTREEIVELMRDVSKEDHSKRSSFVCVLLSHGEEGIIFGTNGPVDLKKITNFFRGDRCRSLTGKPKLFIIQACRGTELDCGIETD
T2 sequence (P42574 176-277 limits assumed): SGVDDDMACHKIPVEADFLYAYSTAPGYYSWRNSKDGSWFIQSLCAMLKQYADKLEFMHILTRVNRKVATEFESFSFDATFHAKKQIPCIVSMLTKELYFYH
Protocol: as §1, §2, §3

mICE = biological target: T3, mICE (Mus musculus, UniProt P29452); assay: Fluorescence enzyme assay, determination of IC50 values (ICE); conditions: recombinant enzyme, 30 min preincubation, substrate Acetyl-Tyr-Val-Ala-Asp-AMC, room temperature
T3 sequence (P29452 123-296 limits assumed): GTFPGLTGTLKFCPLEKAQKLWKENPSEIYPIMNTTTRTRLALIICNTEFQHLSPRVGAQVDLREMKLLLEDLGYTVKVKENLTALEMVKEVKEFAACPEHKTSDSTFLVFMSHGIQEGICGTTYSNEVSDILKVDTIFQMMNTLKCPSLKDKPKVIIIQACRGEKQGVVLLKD
T3 sequence (P29452 315-402 limits assumed): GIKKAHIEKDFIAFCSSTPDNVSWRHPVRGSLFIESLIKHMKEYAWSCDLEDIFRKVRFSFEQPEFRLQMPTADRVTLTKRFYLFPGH
Protocol: as §1, §2, §3

MCH-3 = biological target: T4, MCH-3 (Homo sapiens, UniProt P55210); assay: Fluorescence enzyme assay, determination of IC50 values (Mch3); conditions: 30 min preincubation, substrate Acetyl-Asp-Glu-Val-Asp-AMC, room temperature
T4 sequence (P55210 24-198 limits assumed): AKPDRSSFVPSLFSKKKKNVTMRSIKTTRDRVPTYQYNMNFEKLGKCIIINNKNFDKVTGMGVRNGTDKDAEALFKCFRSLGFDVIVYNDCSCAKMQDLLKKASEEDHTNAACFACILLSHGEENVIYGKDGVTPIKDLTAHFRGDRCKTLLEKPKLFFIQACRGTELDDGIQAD
T4 sequence (P55210 207-303 limits assumed): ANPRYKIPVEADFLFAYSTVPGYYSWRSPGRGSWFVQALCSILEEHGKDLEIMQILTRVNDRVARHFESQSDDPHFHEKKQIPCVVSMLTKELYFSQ
Protocol: as §1, §2, §3

MCH-5, sequence (Q14790 217-374 limits assumed, species assumed): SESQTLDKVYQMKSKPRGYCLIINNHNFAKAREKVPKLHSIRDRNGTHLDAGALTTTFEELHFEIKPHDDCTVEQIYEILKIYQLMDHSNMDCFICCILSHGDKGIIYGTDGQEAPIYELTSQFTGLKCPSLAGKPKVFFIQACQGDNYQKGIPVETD
MCH-5, sequence (Q14790 385-479 limits assumed, species assumed): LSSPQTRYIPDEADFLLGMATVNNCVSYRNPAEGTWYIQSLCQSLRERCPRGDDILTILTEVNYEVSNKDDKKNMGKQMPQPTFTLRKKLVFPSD

Row | SMILES | IC50 (MCH-2) [nM] | IC50 (MCH-5) [nM] | IC50 (CPP32) [nM] | IC50 (mICE) [nM] | IC50 (MCH-3) [nM]
1 | CC(C)[C@H](NC(=O)OCc1ccccc1)C(=O)N[C@@H](C)C(=O)N[C@H](C=O)CC(=O)O [reference, Cbz-ValAlaAsp-H, reference compound] (Cbz-Val-Ala-Asp-aldehyde) | > 10000 | 2960 | 47000 | 64 | > 10000
2 | CC(C)C[C@H](NC(=O)C(=O)Nc1cccc2ccccc12)C(=O)N[C@H](C=O)CC(=O)O [Example 1, (3S)-3-[N-(N′-(1-NAPHTHYL)OXAMYL)LEUCINYL]AMINO-4-OXOBUTANOIC ACID] | 1500 | 179 | 10 | 27 | 267
